Measured values published in US12436145B2, “Cryptic antibiotics and methods for detecting bioactive cryptic metabolites” (THE TRUSTEES OF PRINCETON UNIVERSITY, priority 2019, dated 2025).
In brackets after ≈: the same amount, converted by molar mass. Read-outs that look alike come from different tables or passages of the source. Peptide text beside a SMILES is read from it.

What was measured:
S. lavendulae [1] = experiment: Elicitor screening, supernatants in disc diffusion assays against B. subtilis; assay type: cell-based, Streptomyces lavendulae; conditions: S. lavendulae grown with ~33 μM elicitor, 5 days; supernatant on B. subtilis disc diffusion
Protocol: (§1) For the high-throughput-elicitor screening portion of this example, the procedure is described for S. hiroshimensis. An identical procedure was used for S. lavendulae and A. keratiniphila. […] The culture was incubated at 30° C./250 rpm for two days. Then, the mycelia cell mass was pelleted by centrifugation, the supernatant discarded, and a stock solution of 100 mg/mL cell mass was generated in R4 medium. The stock solution was used to prepare the appropriate volume (see below) of R4 medium containing 0.5 mg/mL mycelia cell mass in a 250 mL Erlenmeyer flask. The suspension was homogenized by stirring at room temperature. Subsequently, a MultiFlow Dispenser (from Biotek, Inc.) was used to dispense 150 μL of the suspension into each well of six sterile round bottom 96 well plates (from Corning, Inc.). Candidate elicitors were added from a commercially-available 502-member Natural Products Library (from Enzo Life Sciences, Inc.) using a CYBI-WELL™ automated liquid transfer robot (from CyBio AG). A volume of 0.5 μL was transferred from the compound library into each well to give a final concentration of ^˜33 μM. […]
(§2) The resulting agar plates were assessed visually, and subsequently examined visually for halos. To generate FIG. 2, the halo diameter, if any, was measured and categorized as none (n), weak (w), medium (m), or strong (s) inhibition. […]

A. keratiniphila [2] = experiment: Elicitor screening, supernatants in liquid bioassay against E. coli; assay type: cell-based, Amycolatopsis kerathiniphila; conditions: A. keratiniphila grown with ~33 μM elicitor; supernatant on E. coli, OD600 nm
Protocol: (§3) For the high-throughput-elicitor screening portion of this example, the procedure is described for S. hiroshimensis. An identical procedure was used for S. lavendulae and A. keratiniphila. […] The culture was incubated at 30° C./250 rpm for two days. Then, the mycelia cell mass was pelleted by centrifugation, the supernatant discarded, and a stock solution of 100 mg/mL cell mass was generated in R4 medium. The stock solution was used to prepare the appropriate volume (see below) of R4 medium containing 0.5 mg/mL mycelia cell mass in a 250 mL Erlenmeyer flask. The suspension was homogenized by stirring at room temperature. Subsequently, a MultiFlow Dispenser (from Biotek, Inc.) was used to dispense 150 μL of the suspension into each well of six sterile round bottom 96 well plates (from Corning, Inc.). Candidate elicitors were added from a commercially-available 502-member Natural Products Library (from Enzo Life Sciences, Inc.) using a CYBI-WELL™ automated liquid transfer robot (from CyBio AG). A volume of 0.5 μL was transferred from the compound library into each well to give a final concentration of ^˜33 μM. Then each plate was covered with a BREATHE-EASY® sealing membrane (from MilliporeSigma) and cultured at 30° C./200 rpm for 5 days. Humidity was maintained in the shaker/incubator by incubating several flasks containing sterile water.
Assays against E. coli were also carried out. In this case, broader elicitation screens were conducted using a ˜500-member natural product library as the source of potential inducers. To increase the throughput of the assays, liquid bioassays were used. […]
From the elicitor plates, after culturing for 5 days, the plates were spun down in a 96-well plate centrifuge and the supernatants (10 μL) transferred to fresh 96-well assay plates, each well containing 100 μL LB-E. coli culture, with the E. coli cells inoculated to an initial OD600 nm OD600 nm of 0.002. The assay plates were cultured at 37° C./200 rpm overnight (10-12 h) and OD600 nm was then determined using a plate reader. […]

S. cebuensis [3] = experiment: Elicitor screening, supernatants on E. coli cultures (OD600 nm); assay type: cell-based, Saccharopolyspora cebuensis; conditions: S. cebuensis grown with elicitor, supernatant on E. coli
Protocol: Wild-type S. cebuensis cultures were transferred to 96 well-plates and each well was robotically supplemented with a compound from a commercial small molecule library as a source of elicitors. […] To grow the cells, the plates were incubated for a defined period. […] The OD600 nm from each well was normalized and the % E. coli growth thus obtained was plotted as a function of each elicitor, allowing one to identify at least one elicitor corresponding to a second activity greater than the first activity.

E. coli = experiment: In-house bioactivity assays of induced peaks and purified taylorflavins; assay type: cell-based
E. coli ATCC 25922 = experiment: Minimal inhibitory concentration (CLSI methods); assay type: cell-based
Protocol: (§4) Antibacterial assays with taylorflavin B (8) were carried out by Micromyx, LLC in accordance with methods from the Clinical and Laboratory Standards Institute. Minimal inhibitory concentrations were determined with the following strains: E. coli ATCC 25922, A. baumannii ATCC 19606, V. cholerae BAA-2163, N. gonorrhoeae ATCC 49226, P. aeruginosa ATCC 27853, K. pneumoniae MMX 214. S. aureus ATCC 29213, S. aureus MMX 2011, S. pneumoniae ATCC 49619, S. pyogenes MMX 6253, S. agalactiae MMX 6189, E. faecalis ATCC 29212, E. faecalis MMX 486, B. subtilis ATCC 6633, C. difficile ATCC 700057, B. fragilis ATCC 25285. Assays with taylorflavin A (7) were carried in-house according to the same protocols.

B. subtilis ATCC 6633 = experiment: Minimal inhibitory concentration (CLSI methods); assay type: cell-based
Protocol: as §4

S. aureus ATCC 29213 = experiment: Minimal inhibitory concentration (CLSI methods); assay type: cell-based
Protocol: as §4

P. aeruginosa ATCC 27853 = experiment: Minimal inhibitory concentration (CLSI methods); assay type: cell-based
Protocol: as §4

S. hiroshimensis [4] = experiment: Elicitor screening, supernatants in liquid bioassay against E. coli; assay type: cell-based, Streptomyces hiroshimensis; conditions: S. hiroshimensis grown with ~33 μM elicitor; supernatant on E. coli, OD600 nm
Protocol: as §3, with “A volume of 0.5 μL was transferred from the compound library into each well to give a final concentration of ^˜33 μM.” left out
(§5) Assays against E. coli were also carried out. In this case, broader elicitation screens were conducted using a ˜500-member natural product library as the source of potential inducers. To increase the throughput of the assays, liquid bioassays were used. Rather than manually spotting each disc, the supernatants were screened by robotically transferring the supernatant from the elicitor plate to 96-well plates inoculated with the E. coli test strain.
(§6) From the elicitor plates, after culturing for 5 days, the plates were spun down in a 96-well plate centrifuge and the supernatants (10 μL) transferred to fresh 96-well assay plates, each well containing 100 μL LB-E. coli culture, with the E. coli cells inoculated to an initial OD600 nm OD600 nm of 0.002. The assay plates were cultured at 37° C./200 rpm overnight (10-12 h) and OD600 nm was then determined using a plate reader. To generate the plot in FIG. 3, the OD600 nm from each well was divided by the average OD600 nm from the entire plate and multiplied by 100 to give the percent growth. This normalization was carried out to account for plate-to-plate variation in growth rates.

S. lavendulae [5] = experiment: as above; assay type: cell-based, Streptomyces lavendulae; conditions: S. lavendulae grown with ~33 μM elicitor; supernatant on E. coli, OD600 nm
Protocol: as §3, §5
as §6, with “rates. The results for the entire library are shown for S. lavendulae in FIG. 3. The two wells with the highest stimulation (301, 302) and highest inhibition (303, 304) are indicated.” for “rates.”

A. keratiniphila [6] = experiment: Elicitor screening, supernatants in disc diffusion assays against B. subtilis; assay type: cell-based, Amycolatopsis kerathiniphila; conditions: A. keratiniphila grown with ~33 μM elicitor, 5 days; supernatant on B. subtilis disc diffusion
Protocol: as §1, §2

S. cebuensis [7] = experiment: Validation of elicitors: agar disc diffusion assays; assay type: cell-based, Saccharopolyspora cebuensis; conditions: supernatants of S. cebuensis grown with elicitor
S. hiroshimensis [8] = experiment: Elicitor screening, supernatants in disc diffusion assays against B. subtilis; assay type: cell-based, Streptomyces hiroshimensis; conditions: S. hiroshimensis grown with ~33 μM elicitor, 5 days; supernatant on B. subtilis disc diffusion
Protocol: as §3, with “Candidate elicitors were added from a commercially-available 502-member Natural Products Library (from Enzo Life Sciences, Inc.) using a CYBI-WELL™ automated liquid transfer robot (from CyBio AG). A volume of 0.5 μL was transferred from the compound library into each well to give a final concentration of ^˜33 μM.” left out

COc1ccc2c(=O)cc(-c3ccccc3OC)oc2c1 [7,2′-dimethoxyflavone]
induction of anti-B. subtilis metabolite(s) (S. lavendulae [1]): appeared to induce synthesis of anti-B. subtilis metabolite(s)

Cc1cn([C@H]2C[C@H](N=[N+]=[N-])[C@@H](CO)O2)c(=O)[nH]c1=O [AZT]
effect of elicitor-induced metabolome on E. coli growth (A. keratiniphila [2]): produce growth-inhibitory compounds

CCCCC(CC)COC(=O)CC(C(=O)OCC(CC)CCCC)S(=O)(=O)[O-].[Na+] (centres unmarked) [Na-docusate]
effect of elicitor-induced metabolome on E. coli growth (S. cebuensis [3]): stimulated E. coli growth best

Cn1nc2[nH]c(=O)n(C)c(=O)c2nc1=O [Taylorflavin A]
antibiotic activity / inhibition of E. coli growth (E. coli): antibiotic activity
minimal inhibitory concentration (MIC) (E. coli ATCC 25922): 37.5 µg/mL (≈ 179 µM)
minimal inhibitory concentration (MIC) (B. subtilis ATCC 6633): >64 µg/mL
minimal inhibitory concentration (MIC) (B. subtilis ATCC 6633; listed as taylorflavin A): Significantly weaker activity
minimal inhibitory concentration (MIC) (S. aureus ATCC 29213): >64 µg/mL
minimal inhibitory concentration (MIC) (S. aureus ATCC 29213; listed as taylorflavin A): Significantly weaker activity
minimal inhibitory concentration (MIC) (P. aeruginosa ATCC 27853): 25 µg/mL (≈ 120 µM)

CC(=O)OC1CN2CCC1CC2 (centres unmarked) [aceclidine]
effect of elicitor-induced metabolome on E. coli growth (S. hiroshimensis [4]): most enhanced E. coli growth

NC(=O)NC1NC(=O)NC1=O (centres unmarked) [allantoin]
effect of elicitor-induced metabolome on E. coli growth (S. lavendulae [5]): inhibited it

COC(=O)[C@H](Cc1ccccc1)NC(=O)[C@@H](N)CC(=O)O [aspartame] (H-Asp-Phe-OMe)
effect of elicitor-induced metabolome on E. coli growth (A. keratiniphila [2]): enhanced E. coli growth

CC(=O)O[C@H]1C(=O)[C@@]2(C)[C@H]([C@H](OC(=O)c3ccccc3)[C@]3(O)C[C@H](O)C(C)=C1C3(C)C)[C@]1(OC(C)=O)CO[C@@H]1C[C@@H]2O [baccatin III]
induction of zones of inhibition against B. subtilis (A. keratiniphila [6]): gave rise to zones of inhibition

C[C@H](CCC(=O)O)[C@H]1CC[C@H]2[C@@H]3[C@H](O)C[C@@H]4C[C@H](O)CC[C@]4(C)[C@H]3CC[C@]12C [chenodiol]
effect of elicitor-induced metabolome on E. coli growth (S. lavendulae [5]): support E. coli growth best

CN(C)CC[C@@H](c1ccc(Cl)cc1)c1ccccn1 [dexchlorpheniramine]
effect of elicitor-induced metabolome on E. coli growth (S. hiroshimensis [4]): most enhanced E. coli growth

NS(=O)(=O)c1cc(C(=O)O)c(NCc2ccco2)cc1Cl [furosemide]
halo of growth-inhibition in agar disc diffusion (S. cebuensis [7]): halo of growth-inhibition

N[C@H]1C(O)O[C@H](CO)[C@@H](O)[C@@H]1O (some centres unmarked) [glucosamine]
effect of elicitor-induced metabolome on E. coli growth (S. hiroshimensis [4]): most enhanced E. coli growth

O[C@H]1[C@H](O)[C@@H](O)[C@H](O)[C@@H](O)[C@H]1O [inositol]
effect of elicitor-induced metabolome on E. coli growth (S. lavendulae [5]): inhibited it

CC(C)NCC(O)c1ccc(O)c(O)c1 (centres unmarked) [isoproterenol]
effect of elicitor-induced metabolome on E. coli growth (S. lavendulae [5]): support E. coli growth best

COc1cc2oc(=O)ccc2cc1O [isoscopoletin]
induction of zones of inhibition against B. subtilis (A. keratiniphila [6]): gave rise to zones of inhibition

CC12CC3CC(C)(C1)CC(N)(C3)C2 [memantine]
effect of elicitor-induced metabolome on E. coli growth (S. hiroshimensis [4]): inhibited E. coli growth best

Cn1cc[nH]c1=S [methimazole]
effect of elicitor-induced metabolome on E. coli growth (S. cebuensis [3]): stimulated E. coli growth best

CC[C@@H](CO)NC(=O)[C@@H]1C=C2c3cccc4[nH]cc(c34)C[C@H]2N(C)C1 [methylergonovine]
effect of elicitor-induced metabolome on E. coli growth (S. hiroshimensis [4]): inhibited E. coli growth best

NC(=O)CN1CCCC1=O [piracetam]
effect of elicitor-induced metabolome on E. coli growth (S. cebuensis [3]): stimulated E. coli growth best

COc1cc(NC(C)CCCN)c2ncccc2c1 (centres unmarked) [primaquine]
induction of anti-B. subtilis metabolite(s) (S. hiroshimensis [8]): appeared to elicit anti-B. subtilis metabolite(s)

CCN(CC)CCOC(=O)c1ccc(N)cc1 [procaine]
induction of anti-B. subtilis metabolite(s) (S. hiroshimensis [8]): appeared to elicit anti-B. subtilis metabolite(s)
effect of elicitor-induced metabolome on E. coli growth (S. cebuensis [3]): inhibited it

CCN1CCCC1CNC(=O)c1cc(S(N)(=O)=O)ccc1OC (centres unmarked) [sulpiride]
effect of elicitor-induced metabolome on E. coli growth (A. keratiniphila [2]): produce growth-inhibitory compounds
